Values of other authors, collected in article PMC3215888 (Cancer Chemotherapy and Pharmacology, 2011).

System: Aurora kinase A mutation (T217D)
Conditions: cited from earlier work

## O=C(O)c1ccc(Nc2ncc3c(n2)-c2ccc(Cl)cc2C(c2c(F)cccc2F)=NC3)cc1 [MLN8054, reference compound]
  inhibition of Aurora kinase A T217D mutant: impervious
